Experimental findings from patent US9839642B2, “Beta-tetrazolyl-propionic acids as metallo-beta-lactamase inhibitors” (priority 2014, dated 2017) are described below.

The target of one assay is IMP-1 (Serratia marcescens, UniProt P52699). Kind of assay: Enzyme activity: determination of IC50, fluorescence assay with CCF2-FA substrate. Format: biochemical. The conditions noted are these: enzyme 2 pM, CCF2-FA 1.25 μM, 2 hours at 25° C.; read-out: IMP1 IC50. Put shortly: (§1)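 100 mM KH2PO4 pH 7 + 0.005% Tween-20 + 10 μM ZnSO4; CCF2-FA 1.25 μM; NDM-1 1 pM, IMP-1 2 pM, VIM-1 30 pM; cpd 20–0.00063 μM final, DMSO 1:50. 2 h, 25° C. Ex 405/em 460 nm; IC50, 4-param fit.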
IMP-1, sequence (P52699 19-246, looked up, species assumed): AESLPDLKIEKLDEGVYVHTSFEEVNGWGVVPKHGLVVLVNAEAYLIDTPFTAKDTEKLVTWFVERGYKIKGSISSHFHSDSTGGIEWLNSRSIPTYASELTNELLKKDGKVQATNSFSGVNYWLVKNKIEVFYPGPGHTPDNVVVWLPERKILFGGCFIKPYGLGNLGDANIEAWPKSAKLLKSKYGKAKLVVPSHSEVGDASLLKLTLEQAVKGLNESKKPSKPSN

Another assay concerns the target NDM-1 (Klebsiella pneumoniae, UniProt C7C422). The description is as above. It counts as biochemical. The conditions noted are these: CCF2-FA 1.25 μM, 2 hours at 25° C. The essentials:
as §1

A further assay deals with VIM-1 (Pseudomonas aeruginosa, UniProt A0A0F7KYQ8). Described as above. It counts as biochemical. The note with it: enzyme 30 pM, CCF2-FA 1.25 μM, 2 hours at 25° C.; read-out: VIM1 IC50. The essentials: as §1
In assay [1] the test system is Escherichia coli expressing NDM-1 (CLB30016). Briefly: Antibiotic potentiation activity: synergistic concentration (MITC95) with imipenem, growth by OD600. Format: cell-based. The conditions noted are these: 95% inhibition of bacterial growth, strain CLB30016. Put shortly: (§2)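 MITC95 = lowest inhibitor concentration giving 95% growth inhibition, read by absorbance after 22–24 h at 35° C. Compound range 200 μM to 0.195 μM, imipenem fixed at 1 or 4 μg/ml, bacteria in 1.1×CAMHB from saline suspension diluted 1:100.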

Assay [2] has as its system Klebsiella pneumoniae expressing VIM-1 (IHMA599644). Described as above. Format: cell-based. The note with it: 95% inhibition of bacterial growth, strain IHMA599644. The essentials: as §2
Assay [3] has as its system Serratia marcescens expressing IMP-1 (CL5741). Described as above. Format: cell-based. The conditions noted are these: 95% inhibition of bacterial growth, strain CL5741. Put shortly: as §2
[4] abbreviates: enzyme 1 pM, read-out: NDM1 IC50.

By IC50 is commonly meant the concentration that inhibits the measured activity by half.

Like-named read-outs stand apart in the source and are kept apart here.

NDM-1, sequence (C7C422 29-270, looked up, species assumed): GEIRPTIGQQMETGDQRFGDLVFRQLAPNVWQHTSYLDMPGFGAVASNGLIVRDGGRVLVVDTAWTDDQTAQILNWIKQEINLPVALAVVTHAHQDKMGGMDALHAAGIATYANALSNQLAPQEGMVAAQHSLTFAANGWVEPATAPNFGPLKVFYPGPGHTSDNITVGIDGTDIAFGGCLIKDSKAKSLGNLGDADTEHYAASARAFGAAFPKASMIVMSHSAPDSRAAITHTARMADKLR

Take `CCC[C@H](C(=O)O)[C@H](Cc1ccc(-c2ccc3c(c2)OCC(=O)N3)cn1)c1nnn[nH]1` [Example 169, (2S)-2-[(1S)-2-[5-(3-oxo-3,4-dihydro-2H-1,4-benzoxazin-7-yl)pyridin-2-yl]-1-(1H-tetrazol-5-yl)ethyl]pentanoic acid]: the figures for the IC50 on IMP-1, at NDM-1 (setting [4]) and at VIM-1 were 1.6 µM, 0.088 µM and 0.038 µM, respectively. Further, the “NDM1 EC30016 MITC95” value in assay [1] was 18.8 µM. In addition, in assay [2], the “VIM1 KP599644 MITC95” value was determined as 200 µM. Moreover, the “IMP1 SM5741 MITC95” value in assay [3] amounted to 100 µM.

As for `CC(C)C[C@H](C(=O)O)[C@H](Cc1ccc(C2=CCNCC2)cn1)c1nn[nH]n1` [Example 170, (2S)-4-methyl-2-[(1S)-2-(1′,2′,3′,6′-tetrahydro-3,4′-bipyridin-6-yl)-1-(2H-tetrazol-5-yl)ethyl]pentanoic acid], the half-inhibitory concentration (IC50) on IMP-1 stood at 3.6 µM; against NDM-1 (NDM1 IC50, enzyme 1 pM) it was 0.25 µM; on VIM-1, 0.022 µM. Further, the “NDM1 EC30016 MITC95” value in assay [1] is 1.6 µM. In addition, in assay [2], the “VIM1 KP599644 MITC95” value amounted to 12.5 µM. In assay [3], the “IMP1 SM5741 MITC95” value was found to be 50 µM.

Take `CC(C)C[C@H](C(=O)O)[C@H](Cc1ccc(-c2ccc(CO)cc2)cn1)c1nn[nH]n1` [Example 171, (2S)-2-[(1S)-2-{5-[4-(hydroxymethyl)phenyl]pyridin-2-yl}-1-(2H-tetrazol-5-yl)ethyl]-4-methylpentanoic acid]: the IC50 at IMP-1 was 0.74 µM; on NDM-1 (setting [4]) it was 0.047 µM; at VIM-1, 0.056 µM. The “NDM1 EC30016 MITC95” value in assay [1] was found to be 75 µM. Moreover, the “VIM1 KP599644 MITC95” value in assay [2] is 200 µM. Further, the “IMP1 SM5741 MITC95” value in assay [3] worked out at 62 µM.

`CC(C)C[C@H](C(=O)O)[C@H](Cc1ccc(-c2ccc(N)nc2)cn1)c1nn[nH]n1` [Example 172, (2S)-2-[(1S)-2-(6′-amino-3,3′-bipyridin-6-yl)-1-(2H-tetrazol-5-yl)ethyl]-4-methylpentanoic acid]: the IC50 on IMP-1 is 0.8 µM; on NDM-1 (setting [4]), 0.052 µM; at VIM-1, 0.049 µM. In addition, the “NDM1 EC30016 MITC95” value in assay [1] came to 12.5 µM. In assay [2], the “VIM1 KP599644 MITC95” value is 50 µM. Also, the “IMP1 SM5741 MITC95” value in assay [3] stood at 38 µM.

On to `CC(C)C[C@H](C(=O)O)[C@H](Cc1ccc(-c2ccc([C@@H]3OC(=O)N[C@@H]3C)cc2)cn1)c1nn[nH]n1` [Example 173, (2S)-4-methyl-2-[(1S)-2-(5-{4-[(4R,5S)-4-methyl-2-oxo-1,3-oxazolidin-5-yl]phenyl}pyridin-2-yl)-1-(2H-tetrazol-5-yl)ethyl]pentanoic acid], for which the IC50 amounted to 0.5 µM at IMP-1, 0.027 µM on NDM-1 (setting [4]) and 0.11 µM at VIM-1. In addition, the “NDM1 EC30016 MITC95” value in assay [1] is 25 µM. Moreover, the “VIM1 KP599644 MITC95” value in assay [2] was greater than 200 µM. The “IMP1 SM5741 MITC95” value in assay [3] came to 31 µM.

On to `CC(C)C[C@H](C(=O)O)[C@H](Cc1ccc(-c2ccc(CN)cc2)cn1)c1nn[nH]n1` [Example 174, (2S)-2-[(1S)-2-{5-[4-(aminomethyl)phenyl]pyridin-2-yl}-1-(2H-tetrazol-5-yl)ethyl]-4-methylpentanoic acid], for which the IC50 was 2.7 µM at IMP-1, 0.24 µM on NDM-1 (setting [4]) and 0.11 µM at VIM-1. Moreover, in assay [1], the “NDM1 EC30016 MITC95” value turned out to be 9.4 µM. For the same compound, the “VIM1 KP599644 MITC95” value in assay [2] came to 25 µM. The “IMP1 SM5741 MITC95” value in assay [3] is 50 µM.

Turning to `CC(C)C[C@H](C(=O)O)[C@H](Cc1ccc(-c2ccc(S(N)(=O)=O)cc2)cn1)c1nn[nH]n1` [Example 175, (2S)-4-methyl-2-[(1S)-2-[5-(4-sulfamoylphenyl)pyridin-2-yl]-1-(2H-tetrazol-5-yl)ethyl]pentanoic acid], the IC50 at IMP-1 turned out to be 0.84 µM; on NDM-1 (setting [4]), 0.019 µM; at VIM-1, 0.012 µM. The “NDM1 EC30016 MITC95” value in assay [1] amounted to 18.8 µM. Moreover, in assay [2], the “VIM1 KP599644 MITC95” value stood at 50 µM. In addition, in assay [3], the “IMP1 SM5741 MITC95” value was found to be 75 µM.

On to `CC(C)C[C@H](C(=O)O)[C@H](Cc1ccc(-c2ccc(N)nc2)nc1)c1nn[nH]n1` [Example 176, (2S)-2-[(1S)-2-(6′-amino-2,3′-bipyridin-5-yl)-1-(2H-tetrazol-5-yl)ethyl]-4-methylpentanoic acid], for which the IC50 was 0.15 µM on IMP-1, 0.025 µM on NDM-1 (setting [4]) and 0.0057 µM on VIM-1. Also, the “NDM1 EC30016 MITC95” value in assay [1] came to 16 µM. The “VIM1 KP599644 MITC95” value in assay [2] amounted to 25 µM. Also, the “IMP1 SM5741 MITC95” value in assay [3] came to 6.2 µM.

On to `CC(C)C[C@H](C(=O)O)[C@H](Cc1ccc(-c2ccc(CO)cc2)nc1)c1nn[nH]n1` [Example 177, (2S)-2-[(1S)-2-{6-[4-(hydroxymethyl)phenyl]pyridin-3-yl}-1-(2H-tetrazol-5-yl)ethyl]-4-methylpentanoic acid], for which the figures for the 50% inhibitory concentration (IC50) on IMP-1, at NDM-1 (setting [4]) and on VIM-1 were 0.14 µM, 0.04 µM and 0.0051 µM, respectively. For the same compound, the “NDM1 EC30016 MITC95” value in assay [1] was determined as 12.5 µM. In assay [2], the “VIM1 KP599644 MITC95” value is 38 µM. Also, in assay [3], the “IMP1 SM5741 MITC95” value was 4.7 µM.

With `CC(C)C[C@H](C(=O)O)[C@H](Cc1ccc(-c2ccnc(N)c2)nc1)c1nn[nH]n1` [Example 178, (2S)-2-[(1S)-2-(2′-amino-2,4′-bipyridin-5-yl)-1-(2H-tetrazol-5-yl)ethyl]-4-methylpentanoic acid], the figures for the IC50 at IMP-1, on NDM-1 (setting [4]) and at VIM-1 were 0.39 µM, 0.043 µM and 0.0024 µM, respectively. Besides, the “NDM1 EC30016 MITC95” value in assay [1] worked out at 9.4 µM. The “VIM1 KP599644 MITC95” value in assay [2] was found to be 25 µM. Further, in assay [3], the “IMP1 SM5741 MITC95” value was found to be 12.5 µM.

Regarding `CC(C)C[C@H](C(=O)O)[C@H](Cc1ccc(-c2ccnc(N)c2)cn1)c1nn[nH]n1` [Example 179, (2S)-2-[(1S)-2-(2′-amino-3,4′-bipyridin-6-yl)-1-(2H-tetrazol-5-yl)ethyl]-4-methylpentanoic acid], the IC50 was 1.3 µM on IMP-1, 0.066 µM on NDM-1 (setting [4]) and 0.024 µM at VIM-1. Besides, in assay [1], the “NDM1 EC30016 MITC95” value is 12.5 µM. Further, the “VIM1 KP599644 MITC95” value in assay [2] was 50 µM. For the same compound, the “IMP1 SM5741 MITC95” value in assay [3] amounted to 38 µM.

Regarding `CC(C)C[C@H](C(=O)O)[C@H](Cc1ccc(-c2ccc3c(c2)OCC(=O)N3)nc1)c1nn[nH]n1` [Example 180, (2S)-4-methyl-2-[(1S)-2-[6-(3-oxo-3,4-dihydro-2H-1,4-benzoxazin-7-yl)pyridin-3-yl]-1-(2H-tetrazol-5-yl)ethyl]pentanoic acid], the IC50 was 0.13 µM on IMP-1, 0.017 µM on NDM-1 (setting [4]) and 0.0017 µM on VIM-1. For the same compound, in assay [1], the “NDM1 EC30016 MITC95” value worked out at 25 µM. Moreover, in assay [2], the “VIM1 KP599644 MITC95” value is 50 µM. Moreover, the “IMP1 SM5741 MITC95” value in assay [3] came out at 3.1 µM.

Regarding `CC(C)C[C@H](C(=O)O)[C@H](Cc1ccc(C2=CCNC2)nc1)c1nn[nH]n1` [Example 181, (2S)-2-[(1S)-2-[6-(2,5-dihydro-1H-pyrrol-3-yl)pyridin-3-yl]-1-(2H-tetrazol-5-yl)ethyl]-4-methylpentanoic acid], the concentration for half-maximal inhibition (IC50) at IMP-1 worked out at 4.4 µM; on NDM-1 (setting [4]), 1 µM; on VIM-1, 0.017 µM. The “NDM1 EC30016 MITC95” value in assay [1] turned out to be 38 µM. Moreover, in assay [2], the “VIM1 KP599644 MITC95” value was found to be 75 µM. Further, the “IMP1 SM5741 MITC95” value in assay [3] came out at 100 µM.

On to `CCC[C@H](C(=O)O)[C@@H](Cc1ccc(-c2ccc3c(c2)OCC(=O)N3)cn1)c1nnn[nH]1` [Example 182, (2S)-2-[(1R)-2-[5-(3-oxo-3,4-dihydro-2H-1,4-benzoxazin-7-yl)pyridin-2-yl]-1-(1H-tetrazol-5-yl)ethyl]pentanoic acid], for which the half-inhibitory concentration (IC50) on IMP-1 came out at 16 µM; at NDM-1 (setting [4]), 1 µM; on VIM-1, 0.33 µM. For the same compound, the “NDM1 EC30016 MITC95” value in assay [1] stood at 150 µM. The “VIM1 KP599644 MITC95” value in assay [2] is greater than 200 µM. For the same compound, in assay [3], the “IMP1 SM5741 MITC95” value was greater than 200 µM.

As to `CCC[C@H](C(=O)O)[C@H](Cc1ccc(NCC2CCCN2CC)cc1)c1nn[nH]n1` (stereo partly drawn) [Example 215, (2S)-2-[(1S)-2-(4-{[(1-ethylpyrrolidin-2-yl)methyl]amino}phenyl)-1-(2H-tetrazol-5-yl)ethyl]pentanoic acid], the IC50 at IMP-1 was determined as 1.1 µM; at NDM-1 (setting [4]), 0.17 µM; on VIM-1, 0.029 µM. For the same compound, the “NDM1 EC30016 MITC95” value in assay [1] worked out at 12.5 µM. Besides, the “VIM1 KP599644 MITC95” value in assay [2] is 50 µM. For the same compound, the “IMP1 SM5741 MITC95” value in assay [3] was found to be 18.8 µM.

In the case of `CCC[C@H](C(=O)O)[C@H](Cc1ccc(NCCN2CCOCC2)cc1)c1nn[nH]n1` [Example 216, (2S)-2-[(1S)-2-{4-[(2-morpholin-4-ylethyl)amino]phenyl}-1-(2H-tetrazol-5-yl)ethyl]pentanoic acid], the IC50 on IMP-1 is 0.49 µM; at NDM-1 (setting [4]), 0.14 µM; at VIM-1, 0.11 µM. Besides, the “NDM1 EC30016 MITC95” value in assay [1] was determined as 31 µM. Also, in assay [2], the “VIM1 KP599644 MITC95” value is 150 µM. Further, in assay [3], the “IMP1 SM5741 MITC95” value turned out to be 18.8 µM.
